The values below come from patent US10214477B2, “(Hetero)aryl cyclopropylamine compounds as LSD1 inhibitors” (Oryzon Genomics S.A., priority 2011, dated 2019).

The subject of this assay is THP-1 cells. Nature of the assay: Induction of differentiation of THP-1 leukemia cells (CD11b membrane expression, flow cytometry). Particulars: Homo sapiens; percentage of CD11b positive THP-1 cells, 96 h treatment. Format: cell-based. Here is the method:
By analyzing the induction of CD11b membrane expression on THP-1 cells we are assessing the ability of LSD1 inhibitors to induce terminal monocytic differentiation of a MLL-AF9 AML cell line. […] They carry t(9;11)(p21;q23) leading to MLL-MLLT3 (MLL-AF9) fusion gene. This cell line can undergo monocytic differentiation upon treatment with the appropriate stimulus. […] In this assay, 150, 000 THP-1 cells were seeded in 1 ml of complete culture medium in 6-well tissue culture plates. […] Cells were kept in the presence of test compound for 96 h at a 5% CO2 atmosphere at 37° C. After this treatment period, cells were harvested, washed twice with PBS buffer and placed in a V-bottom 96-well plate. Each treated sample was split in two. […] Percentage of CD11b positive cells, as an indicator of monocytic differentiation, was determined compared to isotype control antibody stained cells. EC50 values were calculated by non-linear regression analysis.
For orientation: Flow cytometry measures light scatter and fluorescence of single cells or particles in a stream.

Where a name gives a salt, the structure may show the parent alone.

As to `N[C@H]1CC[C@H](N[C@@H]2C[C@H]2c2ccccc2)CC1` [Example 5, (trans)-N1-((1R,2S)-2-phenylcyclopropyl)cyclohexane-1,4-diamine hydrochloride], it took 0.8 nM to reach a half-maximal effect (EC50). The value for `N[C@H]1CC[C@@H](N[C@@H]2C[C@H]2c2ccccc2)CC1` [Example 4, (cis)-N1-((1R,2S)-2-phenylcyclopropyl)cyclohexane-1,4-diamine hydrochloride] was 5.3 nM.
